Data set [1] deals with T1, NAT-2 (Homo sapiens, UniProt P11245).
T1 sequence (P11245 1-290): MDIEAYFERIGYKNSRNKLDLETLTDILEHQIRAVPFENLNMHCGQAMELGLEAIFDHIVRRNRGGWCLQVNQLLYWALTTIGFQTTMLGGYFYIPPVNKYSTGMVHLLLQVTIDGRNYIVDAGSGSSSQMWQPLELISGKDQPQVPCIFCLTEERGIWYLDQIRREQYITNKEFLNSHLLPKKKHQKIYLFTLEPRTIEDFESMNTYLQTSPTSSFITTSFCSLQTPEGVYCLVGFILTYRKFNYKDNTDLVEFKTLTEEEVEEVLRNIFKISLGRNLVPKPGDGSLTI
As to the kind of experiment: Acetylation in human liver subcellular preparation (cytosol), NAT-2 substrates, cross inhibition. More on the design: from tissue; host or cells: human liver cytosol (105,000 g supernatant); key to inhibition of acetylation of substrate DDS / inhibition of acetylation of substrate SMZ / inhibition of acetylation of substrate INH: ++ = strong inhibition; −− = no inhibition. The settings on record: for formation of acetylated metabolite, substrate incubated alone: incubated separately with human liver cytosol. Format: biochemical. Here is the method:
The reaction was terminated by the addition of perchloric acid to a final concentration of 1.5%.
INH, DDS, SMZ were incubated with human liver subcellular preparations as described in Example 1. The reactions were allowed to proceed for thirty minutes at 37° C. before termination by addition of perchloric acid. […] For INH, 1-octanesulfonic acid (5 mM) was added to the mobile phase.

The target in data set [2] is T2, NAT-1 (Homo sapiens, UniProt P18440).
T2 sequence (P18440 1-290): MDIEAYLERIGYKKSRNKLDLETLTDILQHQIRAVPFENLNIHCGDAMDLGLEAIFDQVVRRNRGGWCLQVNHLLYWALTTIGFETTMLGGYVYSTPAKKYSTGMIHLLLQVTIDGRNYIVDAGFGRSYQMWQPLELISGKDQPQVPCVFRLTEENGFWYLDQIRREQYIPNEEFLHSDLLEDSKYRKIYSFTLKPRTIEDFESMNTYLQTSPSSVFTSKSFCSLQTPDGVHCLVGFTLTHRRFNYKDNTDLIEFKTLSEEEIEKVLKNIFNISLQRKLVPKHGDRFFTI
As to the kind of experiment: Acetylation in human liver subcellular preparation (cytosol), NAT-1 substrates, HPLC of N-acetylated metabolites. How it is done: Human liver was homogenized and prepared by high-speed differential centrifugation. A preliminary centrifugation was performed at 13,000 g for 20 min.
The formation of N-acetylated metabolites was quantified by HPLC. Samples from the incubates were injected onto a reverse-phase column (e.g., Waters Symmetry C18, 5 micron, 4.6×150 mm). […] Drugs and their N-acetylated metabolites were quantitated by UV absorption using a diode-array detector.
The substrates assayed above were then co-incubated with human liver subcellular preparations.

In data set [3] the target is T2, NAT-1. The settings on record: human volunteer. Here is the method:
On the fourth and fifth days, PAS was also administered at its standard dose of 4 g every 8 hours.

Data set [4] concerns the target T2, NAT-1. The settings on record: 4 hours.
Protocol: Human hepatocytes were incubated at 37° C. at a ratio of 1 million cells per ml in modified Williams E buffer. Either cryopreserved hepatocytes in suspension or freshly-isolated hepatocytes attached to microtiter plates were used. The reaction was initiated by addition of substrate, and terminated after 4 hours by the addition of perchloric acid. As before, parallel incubations were conducted for drug alone versus drug plus potential inhibitors. Percent inhibition was calculated from the ratio of [Acetylated metabolite]/[parent] with and without the potential inhibitor.
Data set [5] concerns the target T1, NAT-2. Put plainly: Acetylation in human hepatocyte culture, NAT-2 substrates. Type of data set: cell-based. To be noted: human hepatocytes. How it is done:
INH, DDS and SMZ were incubated with human hepatocytes as described in Example 1. Parallel cultures were conducted for each drug alone and each drug plus dichlorphenamide as a potential inhibitor. An additional culture of DDS was incubated with SMZ, a potential inhibitor. […] In addition, SMZ inhibited acetylation of DDS.

Where [6] appears, read: human liver cytosol, 30 min, 37° C.

Experimental findings from patent US6423696B1, “Inhibition of arylamine N-acetyl transferase” (The United States of America, as represented by the …, priority 1999, dated 2002) are described below.

Read-outs that look alike come from different tables or passages of the source.

In the case of `CCC1(c2ccc(N)cc2)CCC(=O)NC1=O` (stereo not shown) [AG, aminoglutethimide], the “inhibition of acetylation of substrate SMZ” value on NAT-2 [1] (setting [6]) was “++”.

Turning to `Nc1ccc(S(=O)(=O)c2ccc(N)cc2)cc1` [DDS, dapsone], on NAT-2 [1], the “formation of acetylated metabolite, substrate incubated alone” value (shortened to “formation of acetylated metabolite”) is given as “Acetylated metabolites were found”.

As to `NNC(=O)c1ccncc1` [INH, isoniazid], at NAT-2 [1], the “formation of acetylated metabolite” value was “Acetylated metabolites were found”. Besides, the “inhibition of acetylation of substrate DDS” value (from here on “inhibition … of substrate DDS”) against NAT-2 [1] (setting [6]) is on record as “++”.

For the compound `Nc1ccc(C(=O)O)cc1` [PABA, para-amino-benzoic acid], on NAT-1 [2] (200 μM inhibitor co-incubated with 20 μM PAS, human liver cytosol, 15 min, 37° C.), the “inhibition of acetylation to Ac-PAS” value is reported as “no Ac-PAS was detected”.

With `Nc1ccc(C(=O)O)c(O)c1` [PAS, para-amino-salicylate], the “PAS concentrations in plasma on Day 5” value on NAT-1 [3] (PAS 4 g every 8 hours, HPLC, FIG. 5) is “exceed the levels required to inhibit NAT-1”. For the same compound, the “plasma concentration of Ac-SMX, Day 5 (with PAS) vs Day 3 (baseline)” value on NAT-1 [3] (SMX 500 mg every 12 hours for 5 days, PAS 4 g every 8 hours on days 4 and 5, FIG. 2) is on record as “almost completely abolished”. The “inhibition of acetylation to Ac-PABA” value on NAT-1 [2] (200 μM inhibitor co-incubated with 20 μM PABA, human liver cytosol, 15 min, 37° C.) is listed as “blockage of all measurable acetylation”. Moreover, the “inhibition of acetylation to Ac-SMX” value on NAT-1 [2] (200 μM inhibitor co-incubated with 200 μM SMX, human liver cytosol, 15 min, 37° C.) is 50%. Further, the “formation of acetylated metabolite” value on NAT-1 [2] (human liver subcellular preparation, HPLC, FIG. 1) was “a single metabolic peak”; at NAT-1 [4] (200 μM incubated separately with human hepatocytes), “formation of Ac-PAS and Ac-SMX”. Further, the “reduction of Ac-SMX formation” value on NAT-1 [4] (200 μM PAS co-incubated with 200 μM SMX, human hepatocytes) was 60%.

For `Cc1cc(C)nc(NS(=O)(=O)c2ccc(N)cc2)n1` [SMZ, sulphamethazine], the “inhibition of acetylation of DDS” value on NAT-2 [5] (substrate DDS) is reported as “inhibited”. In addition, the “formation of acetylated metabolite” value at NAT-2 [1] was “Acetylated metabolites were found”. Also, on NAT-2 [1] (setting [6]), the “inhibition … of substrate DDS” value is reported as “++”.

As to `NS(=O)(=O)c1cc(Cl)c(Cl)c(S(N)(=O)=O)c1` [dichlorphenamide], the “inhibition of acetylation of all substrates (INH, DDS, SMZ)” value against NAT-2 [5] (substrates INH, DDS and SMZ) was “strongly inhibited”. At NAT-2 [1] (setting [6]), the “inhibition … of substrate DDS” value is listed as “++” and the “inhibition of acetylation of substrate SMZ” value is listed as “++”. The “inhibition of acetylation of substrate INH” value against NAT-2 [1] (substrate INH, human liver cytosol, 30 min, 37° C.) is listed as “−−”.
